A short description of data set [1]: Solubility comparison in toluene at room temperature. The class given is physicochemical. To be noted: 50 mg in toluene at room temperature.
The nature of data set [2]: Propylene polymerization with supported metallocene/MAO/SiO2 catalyst. Conditions: metallocene 0.047 mmol in 30% MAO/toluene (Al/Zr=215) on SiO2; liquid propylene, 60° C., one hour. Here is the method:
35.1 mg (0.047 mmol) of (3) were stirred in 2.1 ml of 30% strength MAO solution in toluene (Al/Zr=215) for 60 minutes at room temperature. 2 g of SiO2 (Grace XPO2107, pretreated at 140° C., 10 mbar, 10 hours) were subsequently added and the mixture was stirred for another 10 minutes. The solvent was removed in an oil pump vacuum.
A dry 2 l reactor was flushed firstly with nitrogen and subsequently propylene and charged with 1.5 l of liquid propylene. 2 ml of TEA (20% strength in Varsol) were added and the mixture was stirred for 15 minutes. The catalyst system prepared above (0.886 g) was then resuspended in 20 ml of heptane and injected into reactor and rinsed in using 15 ml of heptane. The reaction mixture was heated to the polymerization temperature of 60° C. and polymerization was carried out for one hour. The polymerization was stopped by venting the remaining propylene. The polymer was dried in a vacuum drying oven. This gave 470 g of polypropylene powder. […] The catalyst activity was 0.53 kg of PP/g of catalyst x h.
27.1 mg (0.047 mmol) of dimethylsilanediylbis(2-methyl-4,5-benzoindenyl)zirconium dichloride were stirred in 2.1 ml of 30% strength MAO solution in toluene (Al/Zr=215) for 60 minutes at room temperature. 2 g of SiO2 (Grace XPO2107, pretreated at 140° C., 10 mbar, 10 hours) were subsequently added and the mixture was stirred for another 10 minutes. […]

Where only a bound is given, the exact number is not on record here.

A word on the solubility: it is the concentration that dissolves in the medium under given conditions. Read a high solubility as much dissolved substance. Compound `CC1=Cc2ccccc2[C]12[Si](C)(C)[C]1(C(C)=Cc3ccccc31)[Zr]2([Cl])[O]c1ccc(C(C)(C)C)cc1C(C)(C)C` (stereo not drawn) [compound 4, Pseudo-rac-Dimethylsilanediylbis(2-methylindenyl)-zirconium Monochloride Mono(2,4-di-tert-butylphenoxide)] registered a solubility in data set [1] of over 15 mmol/L.

For the compound `CC1=Cc2c(ccc3ccccc23)[C]12[Si](C)(C)[C]1(C(C)=Cc3c1ccc1ccccc31)[Zr]2([Cl])[Cl]` (stereo not drawn) [Rac-Dimethylsilanediylbis(2-methyl-4,5-benzoindenyl)zirconium Dichloride], the catalyst activity in data set [2] is 0.46 kg of PP/g of catalyst x h. The solubility result in data set [1] was “about 0.36 mmol/l”. In the same order, the values of `CC1=Cc2c(ccc3ccccc23)[C]12[Si](C)(C)[C]1(C(C)=Cc3c1ccc1ccccc31)[Zr]2([Cl])[O]c1ccc(C(C)(C)C)cc1C(C)(C)C` (stereo not drawn) [compound 3, Pseudo-rac-Dimethylsilanediylbis(2-methyl-4,5-benzo-indenyl)zirconium Monochloride Mono(2,4-di-tert-butylphenoxide)] are 0.53 kg of PP/g of catalyst x h and over 13 mmol/L.

`Cc1cc2ccccc2[c-]1[Si](C)(C)[c-]1c(C)cc2ccccc21.[Cl-].[Cl-].[Zr+4]` (racemic) [Rac-Dimethylsilanediylbis(2-methylindenyl)-zirconium Dichloride]: the solubility entry in data set [1] is “about 2.1 mmol/l”.

For the origin of these results see patent publication US6620953B1, “Method for producing monoaryloxy-ansa-metallocenes” (Bassell Polyolefine GmbH, priority 1998, dated 2003).
